According to the supplement of paper PMC10307832:

Legend:
Assay in all cases: relative viability (nuclei count vs DMSO), 5 days (fraction); higher = more cells survive
NCI-H2087 = system: NCI-H2087
In short: (§1)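 Each reported value is a median over duplicate plates. It expresses relative viability: treated-well nuclei count divided by vehicle-well nuclei count. Lung cancer cell lines in 1536-well plates were dosed by pin tool a day after seeding, alone with one drug or with a fixed anchor-drug dose plus five library-drug doses (not always all listed) in √10 steps, and nuclei were counted after 5 days.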

NCI-H2170 = system: NCI-H2170
In short: as §1

NCI-H2228 = system: NCI-H2228
In short: as §1

NCI-H23 = system: NCI-H23
In short: as §1

NCI-H441 = system: NCI-H441
In short: as §1

NCI-H650 = system: NCI-H650
In short: as §1

NCI-H727 = system: NCI-H727
In short: as §1

NCI-H838 = system: NCI-H838
In short: as §1

PC-3 [JPC-3] = system: PC-3 [JPC-3]
In short: as §1

SW 1573 = system: SW 1573
In short: as §1

SW 900 = system: SW 900
In short: as §1

UMC-11 = system: UMC-11
In short: as §1

CCNC(=O)c1noc(-c2cc(C(C)C)c(O)cc2O)c1-c1ccc(CN2CCOCC2)cc1 [Luminespib] + O=C(CCCCCCC(=O)Nc1ccccc1)NO [Vorinostat] (partner 1 µM) was tested, and the relative viability (NCI-H2087; first compound 0.02 µM) was 0.656, the relative viability (NCI-H2087; first compound 0.06325 µM) was 0.111 and the relative viability (NCI-H2087; first compound 0.2 µM) was 0.122. It also gave a relative viability (NCI-H2170; first compound 0.002 µM) of 0.746, a relative viability (NCI-H2170; first compound 0.006325 µM) of 0.698 and a relative viability (NCI-H2170; first compound 0.06325 µM) of 0.572. The relative viability (NCI-H2170; first compound 0.2 µM) was 0.135, the relative viability (NCI-H2228; first compound 0.002 µM) was 0.873 and the relative viability (NCI-H2228; first compound 0.006325 µM) was 0.503. It also gave a relative viability (NCI-H2228; first compound 0.02 µM) of 0.54, a relative viability (NCI-H2228; first compound 0.06325 µM) of 0.143 and a relative viability (NCI-H2228; first compound 0.2 µM) of 0.15. It also gave a relative viability (NCI-H23; first compound 0.002 µM) of 0.632, a relative viability (NCI-H23; first compound 0.006325 µM) of 0.481 and a relative viability (NCI-H23; first compound 0.02 µM) of 0.315. The relative viability (NCI-H23; first compound 0.06325 µM) was 0.0969, the relative viability (NCI-H23; first compound 0.2 µM) was 0.108 and the relative viability (NCI-H441; first compound 0.002 µM) was 0.784. For the same molecule, the relative viability (NCI-H441; first compound 0.006325 µM) was 0.823, the relative viability (NCI-H441; first compound 0.02 µM) was 0.785 and the relative viability (NCI-H441; first compound 0.06325 µM) was 0.233. For the same molecule, the relative viability (NCI-H441; first compound 0.2 µM) was 0.11, the relative viability (NCI-H650; first compound 0.002 µM) was 0.429 and the relative viability (NCI-H650; first compound 0.006325 µM) was 0.392. For the same molecule, the relative viability (NCI-H650; first compound 0.02 µM) was 0.298, the relative viability (NCI-H650; first compound 0.06325 µM) was 0.158 and the relative viability (NCI-H650; first compound 0.2 µM) was 0.103. It also gave a relative viability (NCI-H727; first compound 0.002 µM) of 1.1, a relative viability (NCI-H727; first compound 0.006325 µM) of 1.21 and a relative viability (NCI-H727; first compound 0.02 µM) of 0.832. For the same molecule, the relative viability (NCI-H727; first compound 0.06325 µM) was 1.04, the relative viability (NCI-H727; first compound 0.2 µM) was 0.31 and the relative viability (NCI-H838; first compound 0.002 µM) was 0.778. It also gave a relative viability (NCI-H838; first compound 0.006325 µM) of 0.655, a relative viability (NCI-H838; first compound 0.02 µM) of 0.785 and a relative viability (NCI-H838; first compound 0.06325 µM) of 0.151. For the same molecule, the relative viability (NCI-H838; first compound 0.2 µM) was 0.153, the relative viability (PC-3 [JPC-3]; first compound 0.002 µM) was 0.737 and the relative viability (PC-3 [JPC-3]; first compound 0.006325 µM) was 0.361. It also gave a relative viability (PC-3 [JPC-3]; first compound 0.02 µM) of 0.491, a relative viability (PC-3 [JPC-3]; first compound 0.06325 µM) of 0.381 and a relative viability (PC-3 [JPC-3]; first compound 0.2 µM) of 0.287. For the same molecule, the relative viability (SW 1573; first compound 0.002 µM) was 0.742, the relative viability (SW 1573; first compound 0.006325 µM) was 0.874 and the relative viability (SW 1573; first compound 0.02 µM) was 0.212. The relative viability (SW 1573; first compound 0.06325 µM) was 0.0903, the relative viability (SW 1573; first compound 0.2 µM) was 0.0874 and the relative viability (SW 900; first compound 0.002 µM) was 0.455. For the same molecule, the relative viability (SW 900; first compound 0.006325 µM) was 0.489, the relative viability (SW 900; first compound 0.02 µM) was 0.266 and the relative viability (SW 900; first compound 0.06325 µM) was 0.124. The relative viability (SW 900; first compound 0.2 µM) was 0.0992, the relative viability (UMC-11; first compound 0.002 µM) was 0.393 and the relative viability (UMC-11; first compound 0.006325 µM) was 0.402. For the same molecule, the relative viability (UMC-11; first compound 0.02 µM) was 0.345, the relative viability (UMC-11; first compound 0.06325 µM) was 0.302 and the relative viability (UMC-11; first compound 0.2 µM) was 0.152.
